PMC12040169 (PLOS Biology, 2025)

test: in vitro; settings: human, hela cells, % viability

Row | Structure (SMILES) | viability at 28.5 h, 10 µM
1 | Cn1nc(CN2CCNC(=O)C2c2ccccc2C(F)(F)F)[nH]c1=O (stereo not shown) [CBK306269] | 91.3%
2 | COc1ccnc(N2CCN(C(=O)c3cc(C(C)=O)cn3C)CC2)n1 [CBK306272] | 91.2%
3 | Cc1sc2nc(C(C)N(C)Cc3cc[nH]n3)[nH]c(=O)c2c1C (stereo not shown) [CBK306275] | 99.3%
4 | Cc1cc(C)nc(NCc2cnn(C)c2C)n1 [CBK306276] | 88.1%
5 | CCOC(=O)C1CCN(C(=O)Nc2cc(C)on2)CC1 [CBK306280] | 88.5%
6 | CC(C)(C)OC(=O)N1CCN(Cc2ncc(-c3ccccc3)o2)CC1 [CBK306281] | 99.3%
7 | Cn1nccc1CNCc1c(Br)cc(F)c(F)c1N1CCCCC1 [CBK306284] | 92.8%
8 | COCC1CN(C(=O)Nc2ncc(Cc3ccc(C)c(Cl)c3)s2)CCO1 (stereo not shown) [CBK306286] | 84%
9 | CC(C)N(CC(N)=O)Cc1nc(-c2cccc(C(F)(F)F)c2)no1 [CBK306287] | 89.8%
10 | CC(c1cccs1)N(C)C(=O)NC1CCCc2c1cnn2CCO (stereo not shown) [CBK306289] | 113%
11 | CC(=O)N1CC(C(=O)N2CC3(CCCC3)c3c(F)cccc32)C1 [CBK306292] | 97.6%
12 | O=C(NCc1cccs1)N1CCCN(Cc2ccc(F)cc2)CC1 [CBK306294] | 97.4%
13 | Cc1ccn(-c2ccc(N3CCC(OC4CCOCC4)CC3)nn2)n1 [CBK306296] | 87%
14 | COCc1nc(C(=O)Nc2ccc(NC(C)=O)cc2C(F)(F)F)cs1 [CBK306298] | 107%
15 | NC(=O)NC(CC(=O)N1CCOC2CCCCC21)c1cccc(Br)c1 (stereo not shown) [CBK306299] | 93.8%
16 | Cc1ccn(-c2ccc(N3CCC(OC4CCCC4)CC3)nn2)n1 [CBK306301] | 96%
17 | Cc1sc(NC(=O)CN(Cc2cnn(C)c2)C(C)C)c(C#N)c1C [CBK306303] | 93.1%
18 | CCCN1CCCN(c2ccc(-n3ccc(C)n3)nn2)CC1 [CBK306304] | 107%
19 | Cc1nc(S(=O)(=O)N2CCC3(CCCCC3)C2)cn1C [CBK306306] | 100%
20 | Cc1nn(C)c(C)c1CC(=O)NC1CCN(c2c(F)cccc2F)C1 (stereo not shown) [CBK306307] | 83.2%
21 | CCCCC(=O)NC1CCN(C(=O)c2cccc(C#N)c2)CC1 [CBK306309] | 83.4%
22 | Cc1nc(-c2cccnc2)[nH]c(=O)c1CC(=O)N(C)C1CCCCC1 [CBK306310] | 88.7%
23 | CC(C)Oc1ncc(C(=O)Nc2cnn(CC(N)=O)c2)cc1Cl [CBK306311] | 90.4%
24 | Cn1cc(CNCc2ccc(N3CCCC3)nc2)c(-c2cccnc2)n1 [CBK306312] | 105%

Row | Structure (SMILES) | viability at 28.5 h, 10 µM
25 | O=C(c1cc(Cl)c[nH]1)N1CCN(Cc2cc(=O)n3ccsc3n2)CC1 [CBK306313] | 92.9%
26 | COc1ncccc1NC(=O)CSCC#N [CBK306314] | 108%
27 | COc1ccc(C)cc1-n1ccc(C(=O)NC(C)(C)C)n1 [CBK306315] | 78.8%
28 | Cn1cc(CNCC2CCN(c3ccccc3)C2)c(-c2ccncc2)n1 (stereo not shown) [CBK306317] | 94.3%
29 | CNC(=O)NC(=O)C(C)NCC1(c2cc(C)ccc2OC)CCOCC1 (stereo not shown) [CBK306318] | 79.1%
30 | Cc1nc(SCCn2cccn2)c2c(=O)n(C)c(=O)n(CC(C)C)c2n1 [CBK306321] | 99.1%
31 | Cn1cc(NC(=O)c2ccc(CN3CCCC3=O)cc2)cn1 [CBK306322] | 89.7%
32 | Cc1[nH]c(=O)c(C#N)c(C)c1CCC(=O)NCc1cn2ccccc2n1 [CBK306325] | 93%
33 | OCCn1ncc2c(NCc3ccc(-n4cccn4)nc3)ncnc21 [CBK306326] | 87.8%
34 | CC(C)Oc1ncc(C(=O)NCc2cccc(NC(N)=O)c2)cc1Cl [CBK306327] | 94.4%
35 | Cc1nc(C(F)(F)F)ccc1C(=O)N1CCCC1c1ccc[nH]1 (stereo not shown) [CBK306328] | 107%
36 | NC(=O)COc1ccc(CNC(=O)CN2CCc3ccccc32)cc1 [CBK306330] | 96.1%
37 | CN(CC(=O)NCc1ccc(OCC(N)=O)cc1)C1CCCCC1 [CBK306331] | 81.7%
38 | NC(=O)COc1ccc(CNC(=O)CN2CCCCCC2)cc1 [CBK306332] | 87.6%
39 | Cc1ccc(NCC2CCN(Cc3cc(=O)n4ccccc4n3)C2)nc1 (stereo not shown) [CBK306334] | 80.7%
40 | Cc1ccc(NCC2CCN(CC(=O)Nc3cc(C)on3)C2)nc1 (stereo not shown) [CBK306337] | 95.5%
41 | CC(=O)N1CC2(CCCC2)c2c(F)cccc21 [CBK306339] | 78.2%
42 | Cc1ccc2nc(CN3CCC(CNc4ccccn4)C3)cc(=O)n2c1 (stereo not shown) [CBK306340] | 83.7%
43 | N#Cc1ccc(NCC(=O)Nc2ncn(Cc3cccnc3)n2)cc1 [CBK306343] | 94.3%
44 | NC(=O)NC(CC(=O)N1CCCC1c1ccncc1)c1cccc(Br)c1 (stereo not shown) [CBK306345] | 92.7%
45 | CS(=O)(=O)N1CCc2cc(-c3csc(C4CC4)n3)ccc21 [CBK306347] | 70.5%
46 | COc1ccnc(N2CCN(C(=O)CCc3ccsc3)CC2)n1 [CBK306350] | 90.5%
47 | COc1ccc(CC2CCCN2C(=O)Cn2cncn2)cc1 (stereo not shown) [CBK306351] | 97.3%
48 | CC(C)c1noc(NCc2nnc3n2CCCCC3)n1 [CBK306352] | 113%

Row | Structure (SMILES) | viability at 28.5 h, 10 µM
49 | Cc1nc(COc2ccc(Cl)cc2)sc1C(=O)N1CCC1 [CBK306353] | 88.5%
50 | CC(=O)Nc1cccc(-n2cnnc2SCC2CCOCC2)c1 [CBK306354] | 92%
51 | CC1CN(C)c2ccccc2CN1C(=O)Cc1cn2ccsc2n1 (stereo not shown) [CBK306355] | 89.1%
52 | Cc1noc(C(C)C)c1C(=O)NC1CCCN(c2ccn(C)n2)C1=O (stereo not shown) [CBK306356] | 75.8%
53 | CC(NC(=O)N1CCC1)c1cccc(S(N)(=O)=O)c1 (stereo not shown) [CBK306357] | 91.5%
54 | CC(CCO)CNS(=O)(=O)c1ccc(N2CCCC2=O)cc1 (stereo not shown) [CBK306358] | 90.5%
55 | CCCc1cc(O)nc(SCCCCn2ccnc2C)n1 [CBK306359] | 107%
56 | O=C(O)C1CC1C(=O)N1CC2(CCCC2)c2c(F)cccc21 (stereo not shown) [CBK306360] | 112%
57 | COc1ccc(C(C)NC2CCN(c3nc(C)cs3)CC2)cc1F (stereo not shown) [CBK306362] | 94.7%
58 | CN1CCN(CC(=O)Nc2cc(C(F)(F)F)ccc2Cl)C(C)(C)C1 [CBK306363] | 85.8%
59 | O=C(Nc1cccc(F)c1)N1CCC(Cc2cccnc2)CC1 [CBK306369] | 87.3%
60 | Cc1nn(C)c(C)c1OCC(=O)Nc1nc2c(cc1C#N)CCC2 [CBK306371] | 81%
61 | CC(C)NC(=O)CCNc1ncc(C(N)=O)cc1Cl [CBK306373] | 92.9%
62 | Cc1nn(C)c(C)c1OCC(=O)Nc1sc2c(c1C#N)CCC2 [CBK306374] | 79.4%
63 | Cc1cc(CC(=O)N2CCN(CCNC(=O)C3CCCC3)CC2)no1 [CBK306376] | 113%
64 | COCCNC(=O)CN(C)c1nc2ccccc2[nH]1 [CBK306378] | 84.6%
65 | c1cn2cnnc2c(N2CCOC(c3ccsc3)C2)n1 (stereo not shown) [CBK306379] | 88.8%
66 | c1csc(C2CN(c3nccn4cnnc34)CCO2)c1 (stereo not shown) [CBK306380] | 85%
67 | Cc1ncc2c(n1)CCCC2NC(=O)c1ccccc1Cn1cncn1 (stereo not shown) [CBK306381] | 100%
68 | O=S(=O)(Cc1cc(Cl)ccc1F)N1CCN(CCO)CC1 [CBK306385] | 80%
69 | CCc1nc2ccccc2n1C1CCN(C(=O)Cc2cccnc2)CC1 [CBK306389] | 100%
70 | Cn1nc(CN(Cc2ccccc2C(F)(F)F)C2CC2)[nH]c1=O [CBK306391] | 98.2%
71 | O=C(NCc1ccsc1)NCC1CCN(c2ccncc2)CC1 [CBK306394] | 91.3%
72 | CC(=O)Nc1cccc(C(=O)OCC(=O)N2CCCC2)c1 [CBK306395] | 91.6%

Row | Structure (SMILES) | viability at 28.5 h, 10 µM
73 | COCC1CCCN(S(=O)(=O)c2cnc3ccsc3c2)C1 (stereo not shown) [CBK306397] | 66.6%
74 | FC(F)CN1CCN(Cc2ccc(Oc3cnccn3)cc2)CC1 [CBK306399] | 101%
75 | CC(=O)Nc1c[nH]nc1C1CCCN(c2cccc(F)c2C#N)C1 (stereo not shown) [CBK306401] | 97.2%
76 | CC(C)c1nc(NCc2nnc(C(C)C)n2C)nc(N(C)C)n1 [CBK306402] | 104%
77 | Cc1noc(CN2CCNC(=O)C2c2ccccc2C(F)(F)F)n1 (stereo not shown) [CBK306405] | 98.2%
78 | CCNC(=O)Nc1c[nH]nc1C1CCCN(c2cccc(F)c2C#N)C1 (stereo not shown) [CBK306406] | 86.5%
79 | Cn1cc(CN2CCNC(=O)C2c2ccccc2C(F)(F)F)cn1 (stereo not shown) [CBK306407] | 90.4%
80 | Cc1nc(-c2cc3c(s2)CCN(Cc2ccc(CO)o2)C3)cs1 [CBK306411] | 90%
81 | N#Cc1ccc(NCC(=O)Nc2ncccc2O)cc1 [CBK306413] | 88.7%
82 | Cc1cc(S(=O)(=O)Nc2ccccc2-c2nncn2C)c(C)o1 [CBK306414] | 85.9%
83 | Cn1ccnc1CN1CCNC(=O)C1c1ccccc1C(F)(F)F (stereo not shown) [CBK306415] | 85.1%
84 | c1cnc(Oc2ccc(CN3CCCC(c4cn[nH]c4)C3)cc2)cn1 (stereo not shown) [CBK306416] | 86.6%
85 | Cc1ccsc1C(C)NC1CCCN(c2ccn(C)n2)C1=O (stereo not shown) [CBK306419] | 106%
86 | Cc1cc(C(=O)N2CCc3c(sc4ncnc(N)c34)C2)sc1C [CBK306420] | 99.4%
87 | Cc1cc(C)n(CC(=O)N2CCNC(=O)C2c2ccccc2Cl)n1 (stereo not shown) [CBK306421] | 92.6%
88 | Cn1nccc1CN1CCNC(=O)C1c1ccccc1C(F)(F)F (stereo not shown) [CBK306422] | 86.9%
89 | CC1CN(c2cc(CNc3nc4ccccn4c3C#N)ccn2)CCO1 (stereo not shown) [CBK306423] | 78.7%
90 | CC(=O)Nc1ccc(CNc2nnc(C3CCCCC3)o2)cc1 [CBK306427] | 105%
91 | Cc1noc(C)c1CC(=O)Nc1nc2c(cc1C#N)CCCC2 [CBK306429] | 97.1%
92 | N#Cc1c[nH]c(C(=O)NC2CCN(C(=O)c3ccccc3)CC2)c1 [CBK306433] | 91%
93 | CCNS(=O)(=O)c1ccc2c(c1)N(Cc1n[nH]c(CC)n1)CC2 [CBK306434] | 86.9%
94 | Cn1cc(CC(=O)Nc2nc3c(cc2C#N)CCCC3)cn1 [CBK306436] | 90.7%
